Patent US20100215759A1 (priority 2009, published 2010)

Legend:
CB1 receptors = molecular target: T1, CB1 receptors (Mus musculus, UniProt P47746); test: biochemical; type: binding
T1 construct: the complete brain (excluding the cerebellum) and the spleen were quickly dissected and kept in ice; from tissue; host or cells: mouse brain (excluding cerebellum), membrane preparation
Description: (§1) The affinity of the synthesized compounds towards the CB1 and CB2 cannabinoidergic receptors was evaluated in vitro by radioreceptor binding studies using the method reported hereinunder.
(§2) The technique of the receptor binding allows to establish if, and with which affinity and specificity, a specific compound binds to a particular receptor. To evaluate the affinity of a specific compound to a particular receptor it is necessary to challenge in a particular tissue preparation wherein those specific receptors are present the compound to be tested with a radioactive labelled compound whose affinity for the same receptors is known. […] The amount of radioactivity present in the receptor-compound complex allows furthermore to estimate with great accuracy the amount of compound bound to the receptor. By said method it is therefore possible to establish quickly the affinity of a new compound towards a specific receptor and thus to determine its pharmacological activity. With the same experimental protocol it is possible to evaluate the affinity of the compound towards other receptors and thus establish its specificity degree toward said other receptors.
(§3) The food and water were ad libitum.
(§4) The procedure adopted, based on the use of the compound [^3H]-CP-55,940 (New England Nuclear, Boston, Mass., USA), requires the use of the mouse brain as biological tissue for the evaluation of the affinity towards the CB1 receptors and of the mouse spleen for the affinity assay for the CB2 receptors.
(§5) The animals were sacrificed by cervical dislocation and the complete brain (excluding the cerebellum) and the spleen were quickly dissected and kept in ice.
(§6) The tissue was homogenized in 15 volumes (weight/volume) of TME buffer (50 Mm Tris, 1 mM EDTA and 3 mM MgCl2, pH 7.4) by an Ultra-Turrax and subsequently centrifuged for 10 minutes at 1086×g in a centrifuge refrigerated at 4° C. The recovered supernatant was centrifuged at 45,000×g for 30 minutes at 4° C. by using a Beckman SW41 rotor and the obtained pellet was resuspended in 50 volumes of TME.
(§7) The thus obtained membranes (50-80 μg of proteins) were incubated in the presence of 1 nM of [^3H]-CP55.940 for 1 hour at 30° C. in a final volume of 0.5 ml of TME buffer containing 5 mg/ml of bovine serum albumin (BSA). The non specific binding was measured in the presence of CP55.940 at a 1 μM concentration.
(§8) All the experiments were carried out in polypropylene test tubes pretreated with Sigma-Cote (Sigma Chemical Co. Ltd., Poole, UK) for reducing non specific binding.
(§9) In order to determine the competitive inhibition binding curves, eight different concentrations of each compound were used.
(§10) Incubation was stopped by addition of TME buffer (at 4° C.) containing 5 mg/ml of BSA, and subsequent filtration under vacuum by Whatman GFC filters pretreated with 0.5% of polyethylamine (PEI) and by using a filtering device (Brandell, Gaithersburg, Md., USA). The filters were washed 3 times with […] of Tris HCl buffer (pH 7.4, 4° C.) containing 1 mg/ml of BSA and separately placed in plastic vials containing 4 ml of scintillating liquid (Ultima Gold MV, Packard).
(§11) The radioactivity present in the filters was determined by a scintillator spectrophotometer (Tricarb® 2100, Packard, Meridien, USA).
(§12) Protein determination was carried out by the Bradford method by using the protocol and the reactants supplied by Bio-Rad (Milano, Italy).

CB2 receptors = molecular target: T2, CB2 receptors (Mus musculus, UniProt P47936); test: biochemical; type: binding
T2 construct: the complete brain (excluding the cerebellum) and the spleen were quickly dissected and kept in ice; from tissue; host or cells: mouse spleen, membrane preparation
Description: as §1, §2, §3, §4, §5, §6, §7, §8, §9, §10, §11, §12

[1] = tested on: mouse deferent vessel (vas deferens); test: Ex-vivo model: electrically induced contractions of the isolated deferent vessel (vas deferens); set-up: species or system albino CD1 mice; conditions: for Activity compared with the compounds of the invention: FIG. 2; for Inhibition of the contractions induced by the electric stimulus: concentrations lower than or equal to 1×10^−6 M
From the text: The use of the isolated deferent vessel organ, as a highly sensitive basic system in an ex-vivo model for evaluating the activity of agonist CB1 compounds, has been described by Pertwee et al. in Br. J. Pharmacol., 105:980-4, 1992. This model has been used also to evaluate the properties of antagonist CB1 compounds and to distinguish antagonist CB1 derivatives from inverse agonist CB1 compounds (Rinaldi-Carmona et al., FEBS Lett., 350:240-4, 1994; Pertwee et al., Eur. J. Pharmacol., 456:99-106, 2002). […] This effect is correlated to the action on the prejunctional neuronal CB1 receptors with the consequent release inhibition, induced by electric stimuli, of contractile neurotransmitters (noradrenaline and ATP) (Schlicker and Kathmann, Trends Pharmacol. Sci., 22:565-72, 2001). The inhibition of the contractions induced by the electric stimulus on the deferent vessel in the presence of agonist (or partial agonist) CB1 compounds are expressed as % of contraction inhibition. Said % contraction inhibition is calculated by the ratio between the contraction amplitude determined in the presence of a given concentration of the compound and that detected in its absence (basal value). The curve of the “% of contraction inhibition” as a function of the logarithm of the concentration of agonist (or partial agonist) CB1 compounds, is sigmoidal. The use of the model for the evaluation of antagonist CB1 compounds is based on the evaluation of their efficacy in inhibiting the action of the deferent vessel of agonist (or partial agonist) CB1 compounds. The inhibition is expressed by a shifting towards the right of the curves % of inhibition of contractions/logarithm of the concentration of the agonist CB1 compound, with increasing the concentration of the antagonist CB1 compound.
As reported in the literature, the experimentation has been carried out by using albino CD1 mice weighing 30-40 grams. The mice deferent vessel was recovered and transferred into an instrument for separated organs supplied by the Firm Ugo Basile (Comerio, Italy). The initial tension was of 0.5 g. The procedure adopted is reported in Pertwee et al. in Br. J. Pharmacol., 110:1483-1490, 1993. In particular the procedure and instruments as described by S. Ruiu et al. in J.P.E.T., Vol. 306, 2003, 363-370, have been used.
In a subsequent experiment it was shown that the compound activity was antagonized by the antagonist CB1 compound N-piperidinyl-[8-chloro-1-(2,4-dichlorophenyl)-1,4,5,6-tetrahydrobenzo[6,7]cyclohepta[1,2-c]pyrazol-3-carboxamide], described by S. Ruiu et al. in J.P.E.T., Vol. 306, 2003, 363-370. The experiment was carried out by adding the antagonist (concentration in bath 1 nM) 20 minutes before the first addition of the compound of the invention.

old DBA/2J mice = test: Reduction of intraocular pressure (IOP) after application to the eye, TONOLab tonometer; type: in vivo; conditions: for Intraocular Pressure Decrease: versus basal IOP; for Reduction of intraocular pressure: dose 100 μg
From the text: The main risk factor in the glaucoma is represented by the high intraocular pressure (IOP). See for instance: Libby R. T. et al., Vis Neurosci. 2005 Sep.-Oct., 22(5):637-48 and Tomida I. et al., Br. J. Opthalmol. 2004 May, 88(5):708-13.
By using the animal model of old DBA/2J mice (see above) it has been evaluated the efficacy of the compound obtained in example 3.1 in reducing the IOP. As said, this compound has a good affinity towards the CB1 receptors in vitro (example 4) and a CB1 agonist action in vivo (example 5). The intraocular pressure has been determined by a TONOLab Tonometer (Tiolat Oy), as reported by M. E. Pease et al. in J. Glaucoma, 2006 December, 15(6):512-519. The compound was dispersed in the commercial emulsion Tocrisolve™, (Tocris), at a concentration of […] and applied to the eye of old DBA/2J mice (8-10 month age; basal IOP comprised between 19.0 and 22.5 mmHg). The applied emulsion volumes were such that the compound doses resulted, respectively, of 100 μg or 50 μg. WIN 55212-2 was dispersed in Tocrisolve™at the concentration of 5 mg/ml and was the reference cannabinoidergic compound. The determination of the ocular pressure was carried out every 30 minutes up to two hours starting from the administration. The obtained results (average of 6 measurements at each time for experimental groups of 8-10 animals for group/dose) are reported in Table 3. IOP decrease was expressed in percent with respect to the basal value.

patients = conditions: cited from earlier work
[2] = 50 μg to the eye in Tocrisolve, 30 minutes
[3] = 50 μg to the eye in Tocrisolve, 60 minutes
[4] = 50 μg to the eye in Tocrisolve, 90 minutes
[5] = 50 μg to the eye in Tocrisolve, 120 minutes
[6] = 100 μg to the eye in Tocrisolve, 30 minutes
[7] = 100 μg to the eye in Tocrisolve, 60 minutes
[8] = 100 μg to the eye in Tocrisolve, 90 minutes
[9] = 100 μg to the eye in Tocrisolve, 120 minutes

T1 sequence (P47746 whole entry): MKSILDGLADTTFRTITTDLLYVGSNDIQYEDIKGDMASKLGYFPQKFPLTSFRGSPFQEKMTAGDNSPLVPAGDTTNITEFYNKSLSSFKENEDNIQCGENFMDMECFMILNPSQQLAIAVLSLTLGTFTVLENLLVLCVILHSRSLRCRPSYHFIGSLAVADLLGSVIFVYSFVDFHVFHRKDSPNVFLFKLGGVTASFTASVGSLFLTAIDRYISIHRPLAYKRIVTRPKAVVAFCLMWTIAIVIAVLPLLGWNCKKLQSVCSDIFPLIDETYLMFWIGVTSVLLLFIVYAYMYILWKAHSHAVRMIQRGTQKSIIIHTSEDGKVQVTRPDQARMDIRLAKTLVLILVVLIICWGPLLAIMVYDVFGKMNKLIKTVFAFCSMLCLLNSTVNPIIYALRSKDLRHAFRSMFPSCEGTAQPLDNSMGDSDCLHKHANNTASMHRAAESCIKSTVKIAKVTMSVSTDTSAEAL
T2 sequence (P47936 whole entry): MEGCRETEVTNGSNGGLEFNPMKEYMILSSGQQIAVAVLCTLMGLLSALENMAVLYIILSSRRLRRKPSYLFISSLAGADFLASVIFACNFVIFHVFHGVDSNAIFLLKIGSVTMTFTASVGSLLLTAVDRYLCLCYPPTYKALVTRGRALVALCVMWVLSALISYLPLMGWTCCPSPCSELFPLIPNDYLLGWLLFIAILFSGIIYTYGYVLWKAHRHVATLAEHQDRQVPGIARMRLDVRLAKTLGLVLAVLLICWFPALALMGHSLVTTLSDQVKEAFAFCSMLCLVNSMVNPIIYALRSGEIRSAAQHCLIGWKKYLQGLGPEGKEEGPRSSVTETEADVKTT

SMILES: Cc1ccc(Cn2nc(C(=O)NC3CC(C)CCC3C(C)C)c3c2-c2sc(C)cc2C3)cc1 (centres unmarked) [Compound (XC), N-menthyl-6-methyl-1-(4′-methylbenzyl)-1,4-dihydro-thieno[3′,2′:4,5]cyclopenta[1,2-c]pyrazol-3-carboxamide]
- Ki (CB1 receptors): 33 ± 8.2 nM
- Ki (CB2 receptors): 2.5 ± 0.3 nM
- Activity compared with the compounds of the invention [1]: lower than that of the compounds of the invention
- Inhibition of the contractions induced by the electric stimulus [1]: able to significantly inhibit the contractions
- Intraocular Pressure Decrease (old DBA/2J mice; [2]): 2.9%
- Intraocular Pressure Decrease (old DBA/2J mice; [3]): 2.2%
- Intraocular Pressure Decrease (old DBA/2J mice; [4]): 0.8%
- Intraocular Pressure Decrease (old DBA/2J mice; [5]): 1.5%
- Intraocular Pressure Decrease (old DBA/2J mice; [6]): 22.2%
- Intraocular Pressure Decrease (old DBA/2J mice; [7]): 22.4%
- Intraocular Pressure Decrease (old DBA/2J mice; [8]): 25.0%
- Intraocular Pressure Decrease (old DBA/2J mice; [9]): 16.7%
- Reduction of intraocular pressure (old DBA/2J mice): able to significantly reduce the intraocular pressure

SMILES: Cc1cc2c(s1)-c1c(c(C(=O)NC3C4(C)CCC(C4)C3(C)C)nn1-c1ccc(Cl)cc1Cl)C2 (centres unmarked) [Compound (XD), N-fenchyl-1-(2′,4′-dichlorophenyl)-6-methyl-1,4-dihydro-thieno[3′,2′:4,5]cyclopenta[1,2-c]pyrazol-3-carboxamide]
- Ki (CB1 receptors): 43.3 ± 5.5 nM
- Ki (CB2 receptors): 15 ± 3.2 nM
- Activity compared with the compounds of the invention [1]: lower than that of the compounds of the invention
- Inhibition of the contractions induced by the electric stimulus [1]: able to significantly inhibit the contractions
- Intraocular Pressure Decrease (old DBA/2J mice; [2]): 3.0%
- Intraocular Pressure Decrease (old DBA/2J mice; [3]): 2.0%
- Intraocular Pressure Decrease (old DBA/2J mice; [4]): 0.5%
- Intraocular Pressure Decrease (old DBA/2J mice; [5]): 1.0%
- Intraocular Pressure Decrease (old DBA/2J mice; [6]): 16.6%
- Intraocular Pressure Decrease (old DBA/2J mice; [7]): 14.0%
- Intraocular Pressure Decrease (old DBA/2J mice; [8]): 11.2%
- Intraocular Pressure Decrease (old DBA/2J mice; [9]): 11.1%
- Reduction of intraocular pressure (old DBA/2J mice): able to significantly reduce the intraocular pressure

SMILES: Cc1cc2c(s1)-c1c(c(C(=O)NCC3CCC4CC3C4(C)C)nn1-c1ccc(F)cc1F)C2 (centres unmarked) [Example 3.2, N-myrtanyl-1-(2′,4′-difluorophenyl)-6-methyl-1,4-dihydrothieno[3′,2′:4,5]cyclopenta[1,2-c]pyrazol-3-carboxamide]
- Ki (CB1 receptors): 22.3 ± 25 nM
- Ki (CB2 receptors): 5.8 ± 1 nM

SMILES: CC1(C)C2CCC(CNC(=O)c3nn(-c4ccc(Cl)cc4Cl)c4c3CCc3sc(-c5ccccc5)cc3-4)C1C2 (centres unmarked) [Example 3.6, N-myrtanyl-1-(2′,4′-dichlorophenyl)-7-phenyl-4,5-dihydro-1H-thieno[2,3-g]indazol-3-carboxamide]
- Ki (CB1 receptors): 86.4 ± 20 nM
- Ki (CB2 receptors): 4350 ± 251 nM

SMILES: Cc1csc2c1Cc1c(C(=O)NCC3CCC4CC3C4(C)C)nn(-c3ccc(Cl)cc3Cl)c1-2 (centres unmarked) [Example 3.7, N-myrtanyl-5-methyl-1-(2′,4′-dichlorophenyl)-1,4-dihydro-thieno[3′,2′:4,5]cyclopenta[1,2-c]pyrazol-3-carboxamide]
- Ki (CB1 receptors): 919 ± 226 nM
- Ki (CB2 receptors): 4.5 ± 0.8 nM
- melting point: 112 to 113 °C

SMILES: Cc1cc2c(s1)-c1c(c(C(=O)NCC3CCC4CC3C4(C)C)nn1-c1ccc(Cl)cc1Cl)C2 (centres unmarked) [Example 3.8, N-myrtanyl-1-(2′,4′-dichlorophenyl)-6-methyl-1,4-dihydro-thieno[3′,2′:4,5]cyclopenta[1,2-c]pyrazole-3-carboxamide]
- Ki (CB1 receptors): 400 ± 71 nM
- Ki (CB2 receptors): 30.6 ± 7.2 nM

SMILES: CC1(C)C2CCC(CNC(=O)c3nn(-c4ccc(F)cc4F)c4c3Cc3cc(Br)sc3-4)C1C2 (centres unmarked) [Example 3.12, N-myrtanyl-6-bromo-1-(2′,4′-difluorophenyl)-1,4-dihydro-thieno[3′,2′:4,5]cyclopenta[1,2-c]pyrazole-3-carboxamide]
- Ki (CB1 receptors): 160 ± 2.5 nM
- Ki (CB2 receptors): 9.3 ± 1.5 nM

SMILES: Cc1cc2c(s1)-c1c(c(C(=O)CC3CCCCC3)nn1-c1ccc(Cl)cc1Cl)C2 [Example 3.15, 1-(2′,4′-dichlorophenyl)-6-methyl-3-(1-oxo-2-cyclohexyleth-1-yl)-1,4-dihydro-thieno[3′,2′:4,5]cyclopenta[1,2-c]pyrazole]
- Ki (CB1 receptors): 720 ± 139 nM
- Ki (CB2 receptors): 5.4 ± 1.4 nM

SMILES: Cc1c(C(=O)NN2CCCCC2)nn(-c2ccc(Cl)cc2Cl)c1-c1ccc(Cl)cc1 [SR141716A]
- Reduction of weight and metabolic and/or cardiovascular risk factors (patients; patients with metabolic syndrome and/or dyslipidemia): effective in reducing both weight and metabolic and/or cardiovascular risk factors
- Reduction of metabolic and/or cardiovascular risk factors (patients; patients with type 2 diabetes): effectiveness of Rimonabant in reducing metabolic and/or cardiovascular risk factors has been shown
